Results as given in PubChem BioAssay (NCI).
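Where inhibition never reached the appropriate level, the endpoint shown equals the highest concentration tested. Otherwise, values were interpolated linearly from a five-concentration, 48-hour dose response in 96-well plates. TGI denotes the concentration required for complete inhibition of growth.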

Legend:
Test in all cases: growth of human tumour cells (NCI), 48 h
786-0 renal = system: 786-0 renal
ACHN renal = system: ACHN renal
BT-549 breast = system: BT-549 breast
CAKI-1 renal = system: CAKI-1 renal
CCRF-CEM leukemia = system: CCRF-CEM leukemia
COLO 205 colon = system: COLO 205 colon
DU-145 prostate = system: DU-145 prostate
EKVX NSCLC = system: EKVX NSCLC
HCT-116 colon = system: HCT-116 colon
HL-60(TB) leukemia = system: HL-60(TB) leukemia
HOP-62 NSCLC = system: HOP-62 NSCLC
HOP-92 NSCLC = system: HOP-92 NSCLC
HT29 colon = system: HT29 colon
IGROV1 ovarian = system: IGROV1 ovarian
K-562 leukemia = system: K-562 leukemia
LOX IMVI melanoma = system: LOX IMVI melanoma
M14 melanoma = system: M14 melanoma
MALME-3M melanoma = system: MALME-3M melanoma
MCF7 breast = system: MCF7 breast
MDA-MB-231 breast = system: MDA-MB-231 breast
MDA-N = system: MDA-N
MOLT-4 leukemia = system: MOLT-4 leukemia
NCI-H226 lung = system: NCI-H226 lung
NCI-H23 lung = system: NCI-H23 lung
NCI-H522 lung = system: NCI-H522 lung
OVCAR-5 ovarian = system: OVCAR-5 ovarian
OVCAR-8 ovarian = system: OVCAR-8 ovarian
PC-3 prostate = system: PC-3 prostate
RPMI-8226 leukemia = system: RPMI-8226 leukemia
RXF 393 renal = system: RXF 393 renal
SF-268 CNS = system: SF-268 CNS
SF-539 CNS = system: SF-539 CNS
SK-MEL-2 melanoma = system: SK-MEL-2 melanoma
SK-MEL-28 melanoma = system: SK-MEL-28 melanoma
SK-MEL-5 melanoma = system: SK-MEL-5 melanoma
SN12C renal = system: SN12C renal
SNB-19 CNS = system: SNB-19 CNS
SR leukemia = system: SR leukemia
SW-620 colon = system: SW-620 colon
T-47D breast = system: T-47D breast
TK-10 renal = system: TK-10 renal
UACC-257 melanoma = system: UACC-257 melanoma
UACC-62 melanoma = system: UACC-62 melanoma
UO-31 renal = system: UO-31 renal
A498 renal = system: A498 renal
A549 NSCLC = system: A549 NSCLC
HCC-2998 colon = system: HCC-2998 colon
HCT-15 colon = system: HCT-15 colon
HS 578T breast = system: HS 578T breast
KM12 colon = system: KM12 colon
MDA-MB-435 = system: MDA-MB-435
NCI-H460 lung = system: NCI-H460 lung
NCI/ADR-RES ovarian = system: NCI/ADR-RES ovarian
OVCAR-3 ovarian = system: OVCAR-3 ovarian
OVCAR-4 ovarian = system: OVCAR-4 ovarian
SF-295 CNS = system: SF-295 CNS
SNB-75 CNS = system: SNB-75 CNS
U251 CNS = system: U251 CNS

Question: For `O=C(c1cccc2cc(O)ccc12)c1cn(CCN2CCOCC2)c2ccccc12`, which TGI (786-0 renal) is on record?
Answer: 42.3 µM

Question: And the TGI (ACHN renal)?
Answer: > 100 µM

Question: And the TGI (BT-549 breast)?
Answer: 56.9 µM

Question: What about the TGI (CAKI-1 renal) of the same molecule?
Answer: > 100 µM

Question: What about the TGI (CCRF-CEM leukemia) of the same molecule?
Answer: 34.4 µM

Question: And the TGI (COLO 205 colon)?
Answer: 78.8 µM

Question: And the TGI (DU-145 prostate)?
Answer: 73 µM

Question: And the TGI (EKVX NSCLC)?
Answer: 64.8 µM

Question: What about the TGI (HCT-116 colon) of the same molecule?
Answer: 38.9 µM

Question: And the TGI (HL-60(TB) leukemia)?
Answer: 55.5 µM

Question: And the TGI (HOP-62 NSCLC)?
Answer: 46.1 µM

Question: What about the TGI (HOP-92 NSCLC) of the same molecule?
Answer: 71.6 µM

Question: And the TGI (HT29 colon)?
Answer: 37.1 µM

Question: What about the TGI (IGROV1 ovarian) of the same molecule?
Answer: 43.4 µM

Question: And the TGI (K-562 leukemia)?
Answer: > 100 µM

Question: And the TGI (LOX IMVI melanoma)?
Answer: 39.1 µM

Question: And the TGI (M14 melanoma)?
Answer: 36.9 µM

Question: And the TGI (MALME-3M melanoma)?
Answer: 56.3 µM

Question: And the TGI (MCF7 breast)?
Answer: 66.8 µM

Question: And the TGI (MDA-MB-231 breast)?
Answer: 45.3 µM

Question: And the TGI (MDA-N)?
Answer: 58.3 µM

Question: What about the TGI (MOLT-4 leukemia) of the same molecule?
Answer: 62.9 µM

Question: What about the TGI (NCI-H226 lung) of the same molecule?
Answer: 87.3 µM

Question: What about the TGI (NCI-H23 lung) of the same molecule?
Answer: > 100 µM

Question: And the TGI (NCI-H522 lung)?
Answer: 61.4 µM

Question: What about the TGI (OVCAR-5 ovarian) of the same molecule?
Answer: 73.5 µM

Question: And the TGI (OVCAR-8 ovarian)?
Answer: > 100 µM

Question: And the TGI (PC-3 prostate)?
Answer: 35.5 µM

Question: What about the TGI (RPMI-8226 leukemia) of the same molecule?
Answer: 68.8 µM

Question: And the TGI (RXF 393 renal)?
Answer: 43.6 µM

Question: What about the TGI (SF-268 CNS) of the same molecule?
Answer: > 100 µM

Question: And the TGI (SF-539 CNS)?
Answer: > 100 µM

Question: What about the TGI (SK-MEL-2 melanoma) of the same molecule?
Answer: 25 µM

Question: What about the TGI (SK-MEL-28 melanoma) of the same molecule?
Answer: > 100 µM

Question: What about the TGI (SK-MEL-5 melanoma) of the same molecule?
Answer: 55.3 µM

Question: What about the TGI (SN12C renal) of the same molecule?
Answer: > 100 µM

Question: What about the TGI (SNB-19 CNS) of the same molecule?
Answer: > 100 µM

Question: And the TGI (SR leukemia)?
Answer: > 100 µM

Question: And the TGI (SW-620 colon)?
Answer: > 100 µM

Question: What about the TGI (T-47D breast) of the same molecule?
Answer: > 100 µM

Question: What about the TGI (TK-10 renal) of the same molecule?
Answer: 50.9 µM

Question: What about the TGI (UACC-257 melanoma) of the same molecule?
Answer: 56 µM

Question: And the TGI (UACC-62 melanoma)?
Answer: 38.5 µM

Question: And the TGI (UO-31 renal)?
Answer: 71.4 µM

Question: Which TGI (786-0 renal) does the source give for `NC(Cc1ccc(O)cn1)C(=O)O` (configuration not stated) here?
Answer: > 100 µM

Question: What about the TGI (A498 renal) of the same molecule?
Answer: > 100 µM

Question: What about the TGI (A549 NSCLC) of the same molecule?
Answer: > 100 µM

Question: And the TGI (ACHN renal)?
Answer: > 100 µM

Question: What about the TGI (BT-549 breast) of the same molecule?
Answer: > 100 µM

Question: What about the TGI (CAKI-1 renal) of the same molecule?
Answer: > 100 µM

Question: What about the TGI (COLO 205 colon) of the same molecule?
Answer: > 100 µM

Question: And the TGI (DU-145 prostate)?
Answer: > 100 µM

Question: And the TGI (EKVX NSCLC)?
Answer: > 100 µM

Question: What about the TGI (HCC-2998 colon) of the same molecule?
Answer: > 100 µM

Question: And the TGI (HCT-116 colon)?
Answer: > 100 µM

Question: And the TGI (HCT-15 colon)?
Answer: > 100 µM

Question: And the TGI (HL-60(TB) leukemia)?
Answer: > 100 µM

Question: What about the TGI (HOP-62 NSCLC) of the same molecule?
Answer: > 100 µM

Question: And the TGI (HOP-92 NSCLC)?
Answer: > 100 µM

Question: And the TGI (HS 578T breast)?
Answer: > 100 µM

Question: What about the TGI (HT29 colon) of the same molecule?
Answer: > 100 µM

Question: And the TGI (IGROV1 ovarian)?
Answer: > 100 µM

Question: And the TGI (K-562 leukemia)?
Answer: > 100 µM

Question: And the TGI (KM12 colon)?
Answer: > 100 µM

Question: And the TGI (LOX IMVI melanoma)?
Answer: > 100 µM

Question: And the TGI (MALME-3M melanoma)?
Answer: > 100 µM

Question: And the TGI (MCF7 breast)?
Answer: > 100 µM

Question: What about the TGI (MDA-MB-231 breast) of the same molecule?
Answer: > 100 µM

Question: And the TGI (MDA-MB-435)?
Answer: > 100 µM

Question: What about the TGI (MDA-N) of the same molecule?
Answer: > 100 µM

Question: What about the TGI (MOLT-4 leukemia) of the same molecule?
Answer: > 100 µM

Question: And the TGI (NCI-H226 lung)?
Answer: > 100 µM

Question: And the TGI (NCI-H23 lung)?
Answer: > 100 µM

Question: What about the TGI (NCI-H460 lung) of the same molecule?
Answer: > 100 µM

Question: And the TGI (NCI-H522 lung)?
Answer: > 100 µM

Question: What about the TGI (NCI/ADR-RES ovarian) of the same molecule?
Answer: > 100 µM

Question: And the TGI (OVCAR-3 ovarian)?
Answer: > 100 µM

Question: And the TGI (OVCAR-4 ovarian)?
Answer: > 100 µM

Question: And the TGI (OVCAR-5 ovarian)?
Answer: > 100 µM

Question: And the TGI (OVCAR-8 ovarian)?
Answer: > 100 µM

Question: What about the TGI (PC-3 prostate) of the same molecule?
Answer: > 100 µM

Question: And the TGI (RPMI-8226 leukemia)?
Answer: > 100 µM

Question: What about the TGI (RXF 393 renal) of the same molecule?
Answer: > 100 µM

Question: What about the TGI (SF-268 CNS) of the same molecule?
Answer: > 100 µM

Question: And the TGI (SF-295 CNS)?
Answer: > 100 µM

Question: What about the TGI (SF-539 CNS) of the same molecule?
Answer: > 100 µM

Question: And the TGI (SK-MEL-28 melanoma)?
Answer: > 100 µM

Question: And the TGI (SK-MEL-5 melanoma)?
Answer: > 100 µM

Question: And the TGI (SN12C renal)?
Answer: > 100 µM

Question: And the TGI (SNB-19 CNS)?
Answer: > 100 µM

Question: What about the TGI (SNB-75 CNS) of the same molecule?
Answer: > 100 µM

Question: And the TGI (SR leukemia)?
Answer: > 100 µM

Question: What about the TGI (SW-620 colon) of the same molecule?
Answer: > 100 µM

Question: What about the TGI (TK-10 renal) of the same molecule?
Answer: > 100 µM

Question: What about the TGI (U251 CNS) of the same molecule?
Answer: > 100 µM

Question: What about the TGI (UACC-257 melanoma) of the same molecule?
Answer: > 100 µM

Question: And the TGI (UO-31 renal)?
Answer: > 100 µM
